Test results reported in patent US9777048B2, “Use of PEDF-derived polypeptides for treating osteoarthritis” (MacKay Memorial Hospital, priority 2012, dated 2017).

Tests used:
osteoarthritis = test: Treating osteoarthritis in a subject (experiments of prior application Ser. No. 13/428,996 and present application); format: in vivo; conditions: stated without data; based on prior and present application
Text: Prior experiments conducted by the present inventors, such as those disclosed in the co-pending U.S. application Ser. No. 13/428,996 (the entirety of which is incorporated herein by reference) and experiments provided hereinbelow, reveal that several short, synthetic PEDF peptides derived from the 39-mer, are capable of treating osteoarthritis in a subject.

[1] = tested on: primary chondrocytes from rat articular cartilage; test: Primary articular chondrocyte proliferation in vitro; format: cell-based, Sprague-Dawley rats; conditions: 50 nM peptide; for Aggrecan Labeling Index (%): rat articular chondrocyte monolayer culture, 12 days, mean±SEM, *P<0.01 vs untreated
Experimental: Articular cartilage was harvested from femoral condyles (the anterior, posterior and lateral areas) of adult 8-wk-old male Sprague-Dawley rats. Care was taken to avoid contamination with synovium and to disruption of the bony structures during the sampling process. Dissected tissue was cut into small (about 0.5 mm^3) pieces and digested sequentially by pronase (70 U/ml, 1 hour at 37° C.) and collagenase (300 U/ml, 3 hours at 37° C.). After digestion, collagenase was removed by a single wash in sterile phosphate-buffered saline (PBS), followed by two further washes in DMEM supplemented with 2% FBS. For primary culture, 6000 trypan blue-negative cells per well were plated on 10 μg/ml fibronectin-coated coverslips in a 6-well plate in 10% FBS-DMEM supplemented with 1% penicillin/streptomycin. The next day, the medium was changed to the standard expansion medium (consisting of 10% FBS-DMEM, 0.1 mM ascorbic acid, 0.5 mg/ml L-glucose, 100 mM HEPES, 1 mM sodium pyruvate, 2 mM L-glutamine and antibiotics) supplemented with or without 50 nM PEDF peptide). The medium was replaced every 3 days for 12 days.
(§1) For immunofluorescence study, the specimens were blocked with 10% goat serum and 5% BSA for 1 hour. Immunostaining was done using primary antibodies against aggrecan (1:100 dilution), type II collagen (1:100 dilution), and BrdU (1:100 dilution) at 37° C. for 2 hours, followed by incubation with the appropriate rhodamine- or FITC-conjugated donkey IgG for 1 hour at room temperature. Nuclei were located by counterstaining with Hoechst 33258 for 7 min. Images were captured using a Zeiss epifluorescence microscope with a CCD camera. Blinded quantification was performed in triplicate by manually counting cells from 20 randomly-selected fields in each section.
Primary chondrocytes were isolated from rat articular cartilage and cultivated in the presence or absence of the present PEDF peptides to elucidate the stimulating effect of the present PEDF peptides on chondrocyte proliferation.
By contrast, in the vehicle group, the colonies are much smaller in the absence of PEDF peptides. The chondrocyte identity of cells within the colony was confirmed by aggrecan immunostaining (FIG. 4A, inserts). The level of aggrecan-positive cells in the monolayer culture (FIG. 4B) were quantified from 20 randomly selected fields, and the aggrecan labeling index (%) was computed as the number of aggrecan-labeled cells divided by the total number of cells (nucleus labeling by Hoechst 33258). Results are summarized in Table 2; *P<0.01 versus untreated cells.

[2] = tested on: chondrocytes in damaged articular cartilage (MIA-induced osteoarthritis); test: MIA-induced knee osteoarthritis in rats: chondrocyte proliferation and cartilage regeneration in vivo; set-up: species or system Sprague-Dawley rats; conditions: for BrdU/Aggrecan Labeling Index (%): rat MIA knee, 0.2 mM peptide in 25 μl of 5% HA (HA group: 5% HA alone), intra-articular on day 8, 12, 16, 20 post-MIA, mean±SEM, *P<0.0001 vs vehicle/HA; for H&E histology of knee joint (morphological changes associated with osteoarthritis): specimens day-18 and day-25 post-MIA injection, FIG. 1; for Chondrocytes in cartilage layers, microscopic images: knee specimens 25 days after MIA injection, FIG. 2
Experimental: Animal models of osteoarthritis were established by intra-articular injection of MIA. Specifically, adult 10-wk-old male Sprague-Dawley rats (initial body wt=312±11 g) were anesthetized with an intraperitoneal injection of xylazine (10 mg/kg), followed by a single intra-articular injection of MIA (1 mg of MIA in 25 μl of sterile saline) in the right knee. In particular, the MIA solution was injected through the patellar ligament by using a 27G needle with the leg flexed at a 90° angle at the knee.
For the detection of in vivo cell proliferation, BrdU was reconstituted in DMSO as stock (80 mM). 150 μl of BrdU mixed with 350 μl of PBS was intraperitoneally injected into rat at 16 hours prior to euthanasia. DNA synthesis was then assessed by BrdU labeling with anti-BrdU antibodies according to procedures set forth below.
The knee joints were dissected and the surrounding soft tissue was removed. Specimens were fixed in 4% paraformaldehyde and then decalcified with Shandon TBD-2 decalcifier (Thermo Scientific; Logan, Utah). The joints were then sectioned mid-sagittally and embedded in paraffin blocks. Sections (5 μm in thickness) were longitudinally cut.
Before use, fixed samples were de-pa raffinized in xylene and rehydrated in a graded series of ethanol. The sample were then stained with hematoxylin and eosin (H&E) or used for immunohistochemical examination. 20 sections per knee were carefully prepared so as to include the most severely degenerated area.
Paraffin-embedded joint specimens were deparaffinized in xylene and rehydrated in a graded series of ethanol. Deparaffinized specimens were then exposed to 1 N HCl at room temperature for 1 hour for subsequent immunofluorescence study.
as §1
Knee osteoarthritis is a common chronic degenerative disease characterized by loss of articular cartilage. Injection of mono-iodoacetate (MIA), an inhibitor of glycolysis, into the femorotibial joint space of rodents has been reported to induce loss of articular cartilage similar to that noted in human OA. It has been established that extensive chondrocyte degeneration/necrosis usually arises at 7 days after MIA injection. Therefore, PEDF peptide treatment was started on day 8 post-MIA injection, so as to elucidate whether the present PEDF peptides promote cartilage regeneration.
Rats were randomly assigned to 6 experimental groups (n=6, each group) and treated as follows. In the HA group, rats received 25 μl of 5% hyaluronic acid injection. In the Vehicle/HA group, rats were treated with DMSO vehicle re-dissolved in 25 μl of 5% HA. As to the 29-mer/HA, 24-mer/HA, 20-mer/HA, and 18-mer/HA groups, rats received 0.2 mM PEDF peptide (29-mer, 24-mer, 20-mer or 18-mer) re-dissolved in 25 μl of 5% HA. Treatments were applied by way of a single intra-articular injection once on day-8, 12, 16 and 20, respectively, post-MIA injection.
Quantitative analysis was performed as described above from 3 sections per knee joint specimen, and 6 rats at each group. The BrdU/aggrecan labeling index (%) was computed as the number of BrdU- and aggrecan-double positive cells divided by the total number of aggrecan-positive cells. Results are summarized in Table 1; *P<0.0001 versus the vehicle/HA group.

[3] = tested on: mesenchymal stem cells (MSCs); test: Chondrogenic differentiation of MSCs: aggrecan immunostaining; format: cell-based, Sprague-Dawley rats; conditions: rat MSCs in chondrogenic medium plus 50 nM peptide, 1 week; mean±SEM; *P<0.0001 vs vehicle
Experimental: Adult 8-wk-old male Sprague-Dawley rats were anesthetized with an intraperitoneal injection of xylazine (10 mg/kg). Femurs were aseptically harvested, washed in a mixture of PBS and antibiotics for 5 minutes, dissected of all soft tissue, transected at their epiphysis, and their marrow cavity was rinsed repeatedly with a mixture of heparin and DMEM. The harvested cells were centrifuged at 1000×g for 10 minutes. Cell pellets were resuspended with DMEM, and then the cell suspension was transferred to a 15-ml centrifuge tube containing 5 ml of Percoll (1.073 g/ml). After centrifugation at 1500×g for 30 minutes, the mononuclear cells in the middle layer were separated, washed three times with PBS and then resuspended in low-glucose DMEM with 10% heat-inactivated FBS and 1% penicillin/streptomycin. Cells were then incubated with 95% air and 5% CO2 at 37° C.; the medium was replaced every 4 days. Unattached cells were discarded and adherent cells were retained. The primary mesenchymal stem cells (MSCs) grew to approximately 80%-90% confluence after culture for 1 week.
For inducing the chondrogenic differentiation of MSCs, 5×10^5 expanded MSCs were exposed to chondrogenic medium (high-glucose DMEM with 100 nM dexamethasone, 0.17 mM ascorbic acid-2 phosphate, 10 μg/ml of insulin, 5 μg/ml of transferrin, 5 ng/ml selenium, 1 mM sodium pyruvate, 2 mM L-glutamine, and 2% FBS) supplemented with 10 ng/ml TGF-β2 (R&D Systems; Minneapolis, Minn.). […]
For immunofluorescence study, the specimens were blocked with 10% goat serum and 5% BSA for 1 hour. […] Blinded quantification was performed in triplicate by manually counting cells from 20 randomly-selected fields in each section.
Immunostaining for aggrecan and type II collagen was also performed to investigate the pro-differentiation activity of the present PEDF peptides. The level of aggrecan-positive cells were quantified from 20 randomly selected fields, and the aggrecan labeling index (%) was computed as the number of aggrecan-labeled cells divided by the total number of cells (nucleus labeling by Hoechst 33258). […]

Row | Substance | Effectiveness in treating osteoarthritis in a subject (osteoarthritis) | Aggrecan Labeling Index (%) [1] | BrdU/Aggrecan Labeling Index (%) [2] | Aggrecan Labeling Index (%) [3] | other results
1 | ALSALSLGAEQRTESIIHRALYYDLISSPDIHGT [34-mer, corresponds to residues 88-121 of human PEDF] | effective | – | – | – | –
2 | EQRTESIIHRALYYDLIS (optionally in 5% hyaluronic acid) [18-mer, peptide lacking the SLGA residues; /HA = re-dissolved in 5% hyaluronic acid, reference compound] | fails to elicit any protection against osteoarthritis | 31.8 ± 2.6% | does not elicit such promoting effect | – | BrdU/Aggrecan Labeling Index (%) ([2]; listed as 18-mer/HA): 0.67 ± 0.33%; H&E histology of knee joint (morphological changes associated with osteoarthritis) [2]: morphological changes associated with osteoarthritis (including the reduction of cartilage, the superficial fibrosis of cartilage and subchondral bone collapse) is noted
3 | EQRTESIIHRALYYDLISSPDIHGT [25-mer, peptide lacking the SLGA residues] | ineffective | – | – | – | –
4 | SLGAEQRTESIIHRALYYDL (optionally in 5% hyaluronic acid) [20-mer, residues 93-112 of human PEDF; /HA = re-dissolved in 5% hyaluronic acid] | – | 50.1 ± 3.6* % | 17.5 ± 2.7* % | 78.7 ± 3.8* % | Chondrocyte growth and colony formation ([1]; vs vehicle group, FIG. 4A): chondrocytes grew faster and aggregated into huge three dimensional colonies; Aggrecan-positive cells among all cells (aggrecan/Hoechst 33258 dual staining) ([2]; FIG. 3 middle panels): over 95%; Chondrocytes in cartilage layers, microscopic images [2]: occupation of large numbers of newly generated chondrocyte throughout the cartilage; H&E histology of knee joint (morphological changes associated with osteoarthritis) [2]: the cartilage surface is smoother and the cartilage and subchondral bone are relatively integral; Aggrecan-positive signals in cartilage (immunostaining) ([2]; superficial, transitional and deep zone, vs vehicle-treated knee, FIG. 3 left): heavily accumulated; Numbers of BrdU-positive cells ([2]; vs vehicle/HA group, FIG. 3 right panels): increased significantly
5 | SLGAEQRTESIIHRALYYDLISSP (optionally in 5% hyaluronic acid) [24-mer, residues 93-116 of human PEDF; /HA = re-dissolved in 5% hyaluronic acid] | – | 50.0 ± 2.9* % | 16.0 ± 2.03* % | 78.8 ± 4.3* % | –
6 | SLGAEQRTESIIHRALYYDLISSPDIHGT (optionally in 5% hyaluronic acid) [29-mer, residues 93-121 of human PEDF; /HA = re-dissolved in 5% hyaluronic acid] | – | 52.2 ± 5.2* % | 15.0 ± 2.38* % | 76.8 ± 5.0* % | Chondrocytes in cartilage layers, microscopic images [2]: occupation of large numbers of newly generated chondrocyte throughout the cartilage
7 | hyaluronic acid [HA, reference compound] | – | – | 0.71 ± 0.28% | – | –
